Measurements as given in the supplement of paper PMC10307832.

What was measured:
Assay in all cases: relative viability (nuclei count vs DMSO), 5 days (fraction); higher = more cells survive
[1] = compound: CN(C/C=C/C1=CC=C(C=C1)Cl)CC2=CC=CC=C2N(CCO)S(=O)(=O)C3=CC=C(C=C3)OC [KN-93]
Outline: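 Lung cancer cell lines in 1536-well plates were exposed by pinning to five library-drug doses (not always all listed) √10 apart, following an overnight hold at 37 °C. MetaXpress counted Hoechst-stained nuclei from 4× images taken after 5 days without medium change. Viability is the median ratio of treated-well to vehicle-well nuclei across plates. Plates required control CV below 25% and at least one doubling.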

[2] = compound: CN(C/C=C/C1=CC=C(C=C1)Cl)CC2=CC=CC=C2N(CCO)S(=O)(=O)C3=CC=C(C=C3)OC [KN-93] + Cc1nc(Nc2ncc(C(=O)Nc3c(C)cccc3Cl)s2)cc(N2CCN(CCO)CC2)n1 [Dasatinib] (partner 0.075 µM)
Outline: (§1)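 Lung cancer cell lines were seeded in 1536-well plates and dosed by pin tool the next day, with either a single drug or a fixed anchor-drug dose combined with five library-drug doses (not always all listed) spaced in √10 steps. Five days later, one step fixed the cells and stained their nuclei (final 0.05% Triton X-100, 1% formaldehyde, 1 ug/ml Hoechst), and nuclei were counted on 4× images. Relative viability is the nuclei count in treated wells divided by the count in vehicle wells, and each value is the median of duplicate plates.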

[3] = compound: CN(C/C=C/C1=CC=C(C=C1)Cl)CC2=CC=CC=C2N(CCO)S(=O)(=O)C3=CC=C(C=C3)OC [KN-93] + COc1cccc2cc(-c3nc([C@H]4CC[C@H](C(=O)O)CC4)n4ncnc(N)c34)[nH]c12 [OSI-027] (partner 0.5 µM)
Outline: as §1

[4] = compound: CN(C/C=C/C1=CC=C(C=C1)Cl)CC2=CC=CC=C2N(CCO)S(=O)(=O)C3=CC=C(C=C3)OC [KN-93] + N=C(N)NC(=N)NCCc1ccccc1 [Phenformin] (partner 250 µM)
Outline: as §1

[5] = compound: CN(C/C=C/C1=CC=C(C=C1)Cl)CC2=CC=CC=C2N(CCO)S(=O)(=O)C3=CC=C(C=C3)OC [KN-93] + COc1cc2c(Oc3ccc(NC(=O)C4(C(=O)Nc5ccc(F)cc5)CC4)cc3F)ccnc2cc1OCCCN1CCOCC1 [Foretinib] (partner 0.25 µM)
Outline: as §1

[6] = compound: CN(C/C=C/C1=CC=C(C=C1)Cl)CC2=CC=CC=C2N(CCO)S(=O)(=O)C3=CC=C(C=C3)OC [KN-93] + Cc1cc(Nc2cc(N3CCN(C)CC3)nc(Sc3ccc(NC(=O)C4CC4)cc3)n2)n[nH]1 [Tozasertib] (partner 0.1 µM)
Outline: as §1

[7] = compound: CN(C/C=C/C1=CC=C(C=C1)Cl)CC2=CC=CC=C2N(CCO)S(=O)(=O)C3=CC=C(C=C3)OC [KN-93] + CCNC(=O)c1noc(-c2cc(C(C)C)c(O)cc2O)c1-c1ccc(CN2CCOCC2)cc1 [Luminespib] (partner 0.01 µM)
Outline: as §1

[8] = compound: CN(C/C=C/C1=CC=C(C=C1)Cl)CC2=CC=CC=C2N(CCO)S(=O)(=O)C3=CC=C(C=C3)OC [KN-93] + CC1(C)CCC(c2ccc(Cl)cc2)=C(CN2CCN(c3ccc(C(=O)NS(=O)(=O)c4ccc(N[C@H](CCN5CCOCC5)CSc5ccccc5)c(S(=O)(=O)C(F)(F)F)c4)cc3)CC2)C1 [Navitoclax] (partner 0.5 µM)
Outline: as §1

[9] = compound: CN(C/C=C/C1=CC=C(C=C1)Cl)CC2=CC=CC=C2N(CCO)S(=O)(=O)C3=CC=C(C=C3)OC [KN-93] + C[C@]1(O)C[C@@H](c2nc(-c3ccc4ccc(-c5ccccc5)nc4c3)c3c(N)nccn32)C1 [Linsitinib] (partner 1 µM)
Outline: as §1

[10] = compound: CN(C/C=C/C1=CC=C(C=C1)Cl)CC2=CC=CC=C2N(CCO)S(=O)(=O)C3=CC=C(C=C3)OC [KN-93] + CC(C)C[C@H](NC(=O)[C@H](Cc1ccccc1)NC(=O)c1cnccn1)B(O)O [Bortezomib] (partner 0.002 µM)
Outline: as §1

[11] = compound: CN(C/C=C/C1=CC=C(C=C1)Cl)CC2=CC=CC=C2N(CCO)S(=O)(=O)C3=CC=C(C=C3)OC [KN-93] + C[C@@H](Oc1cc(-c2cnn(C3CCNCC3)c2)cnc1N)c1c(Cl)ccc(F)c1Cl [Crizotinib] (partner 1 µM)
Outline: as §1

[12] = compound: CN(C/C=C/C1=CC=C(C=C1)Cl)CC2=CC=CC=C2N(CCO)S(=O)(=O)C3=CC=C(C=C3)OC [KN-93] + CS(=O)(=O)N1CCN(Cc2cc3nc(-c4cccc5[nH]ncc45)nc(N4CCOCC4)c3s2)CC1 [Pictilisib] (partner 1 µM)
Outline: as §1

[13] = compound: CN(C/C=C/C1=CC=C(C=C1)Cl)CC2=CC=CC=C2N(CCO)S(=O)(=O)C3=CC=C(C=C3)OC [KN-93] + CS(=O)(=O)CCNCc1ccc(-c2ccc3ncnc(Nc4ccc(OCc5cccc(F)c5)c(Cl)c4)c3c2)o1 [Lapatinib] (partner 2 µM)
Outline: as §1

[14] = compound: CN(C/C=C/C1=CC=C(C=C1)Cl)CC2=CC=CC=C2N(CCO)S(=O)(=O)C3=CC=C(C=C3)OC [KN-93] + O=C(c1cc(Cc2n[nH]c(=O)c3ccccc23)ccc1F)N1CCN(C(=O)C2CC2)CC1 [Olaparib] (partner 8 µM)
Outline: as §1

[15] = compound: CN(C/C=C/C1=CC=C(C=C1)Cl)CC2=CC=CC=C2N(CCO)S(=O)(=O)C3=CC=C(C=C3)OC [KN-93] + Cc1nc(NC(=O)N2CCC[C@H]2C(N)=O)sc1-c1ccnc(C(C)(C)C(F)(F)F)c1 [Alpelisib] (partner 2 µM)
Outline: as §1

NCI-H1623
relative viability ([1]; 0.08 µM): 0.95
relative viability ([1]; 0.253 µM): 0.984
relative viability ([1]; 2.53 µM): 0.956
relative viability ([1]; 8 µM): 0.958
relative viability ([2]; first compound 0.08 µM): 0.647
relative viability ([2]; first compound 0.253 µM): 0.525
relative viability ([2]; first compound 2.53 µM): 0.536
relative viability ([2]; first compound 8 µM): 0.393
relative viability ([3]; first compound 0.08 µM): 0.418
relative viability ([3]; first compound 0.253 µM): 0.36
relative viability ([3]; first compound 2.53 µM): 0.393
relative viability ([3]; first compound 8 µM): 0.416
relative viability ([4]; first compound 0.08 µM): 0.61
relative viability ([4]; first compound 0.253 µM): 0.592
relative viability ([4]; first compound 2.53 µM): 0.672
relative viability ([4]; first compound 8 µM): 0.453
relative viability ([5]; first compound 0.08 µM): 0.861
relative viability ([5]; first compound 0.253 µM): 0.796
relative viability ([5]; first compound 2.53 µM): 0.994
relative viability ([5]; first compound 8 µM): 0.726
relative viability ([6]; first compound 0.08 µM): 0.445
relative viability ([6]; first compound 0.253 µM): 0.41
relative viability ([6]; first compound 2.53 µM): 0.41
relative viability ([6]; first compound 8 µM): 0.439
relative viability ([7]; first compound 0.08 µM): 0.44
relative viability ([7]; first compound 0.253 µM): 0.414
relative viability ([7]; first compound 2.53 µM): 0.654
relative viability ([7]; first compound 8 µM): 0.457

NCI-H1299
relative viability ([1]; 0.08 µM): 1.01
relative viability ([1]; 0.253 µM): 1.1
relative viability ([1]; 2.53 µM): 1.04
relative viability ([1]; 8 µM): 0.796
relative viability ([8]; first compound 0.08 µM): 1.07
relative viability ([8]; first compound 0.253 µM): 1.04
relative viability ([8]; first compound 2.53 µM): 1.11
relative viability ([8]; first compound 8 µM): 1.02
relative viability ([9]; first compound 0.08 µM): 0.959
relative viability ([9]; first compound 0.253 µM): 1.22
relative viability ([9]; first compound 2.53 µM): 1.02
relative viability ([9]; first compound 8 µM): 0.861
relative viability ([10]; first compound 0.08 µM): 0.969
relative viability ([10]; first compound 0.253 µM): 1.01
relative viability ([10]; first compound 2.53 µM): 1.05
relative viability ([10]; first compound 8 µM): 0.969
relative viability ([11]; first compound 0.08 µM): 0.885
relative viability ([11]; first compound 0.253 µM): 1.14
relative viability ([11]; first compound 2.53 µM): 0.891
relative viability ([11]; first compound 8 µM): 0.514
relative viability ([12]; first compound 0.253 µM): 1.03
relative viability ([12]; first compound 2.53 µM): 0.656
relative viability ([12]; first compound 8 µM): 0.267
relative viability ([13]; first compound 0.08 µM): 0.992
relative viability ([13]; first compound 0.253 µM): 1.04
relative viability ([13]; first compound 2.53 µM): 0.952
relative viability ([13]; first compound 8 µM): 0.708
relative viability ([5]; first compound 0.08 µM): 1.12
relative viability ([5]; first compound 0.253 µM): 1.13
relative viability ([5]; first compound 2.53 µM): 1.14
relative viability ([5]; first compound 8 µM): 0.904
relative viability ([14]; first compound 0.08 µM): 0.941
relative viability ([14]; first compound 0.253 µM): 1.06
relative viability ([14]; first compound 2.53 µM): 1
relative viability ([14]; first compound 8 µM): 0.594
relative viability ([15]; first compound 0.08 µM): 0.951
relative viability ([15]; first compound 0.253 µM): 1.15
relative viability ([15]; first compound 2.53 µM): 1.09
relative viability ([15]; first compound 8 µM): 1.07

Calu-6
relative viability ([1]; 0.08 µM): 0.872
relative viability ([1]; 0.253 µM): 1.09
relative viability ([1]; 2.53 µM): 1.16
relative viability ([1]; 8 µM): 0.69
relative viability ([8]; first compound 0.08 µM): 0.805
relative viability ([8]; first compound 0.253 µM): 0.894
relative viability ([8]; first compound 2.53 µM): 0.951
relative viability ([8]; first compound 8 µM): 0.36
relative viability ([9]; first compound 0.08 µM): 0.784
relative viability ([9]; first compound 0.253 µM): 1
relative viability ([9]; first compound 2.53 µM): 1.16
relative viability ([9]; first compound 8 µM): 0.904
relative viability ([10]; first compound 0.08 µM): 1.1
relative viability ([10]; first compound 0.253 µM): 1.05
relative viability ([10]; first compound 2.53 µM): 1.13
relative viability ([10]; first compound 8 µM): 0.633
relative viability ([11]; first compound 0.08 µM): 0.638
relative viability ([11]; first compound 0.253 µM): 1.09
relative viability ([11]; first compound 2.53 µM): 0.786
relative viability ([11]; first compound 8 µM): 0.41
relative viability ([12]; first compound 0.253 µM): 1.06
relative viability ([12]; first compound 2.53 µM): 1.09
relative viability ([12]; first compound 8 µM): 0.454
relative viability ([13]; first compound 0.08 µM): 0.932
relative viability ([13]; first compound 0.253 µM): 1.25
relative viability ([13]; first compound 2.53 µM): 1.37
relative viability ([13]; first compound 8 µM): 0.567
relative viability ([5]; first compound 0.08 µM): 0.861
relative viability ([5]; first compound 0.253 µM): 0.997
relative viability ([5]; first compound 2.53 µM): 0.882
relative viability ([5]; first compound 8 µM): 0.622
relative viability ([14]; first compound 0.08 µM): 0.503
relative viability ([14]; first compound 0.253 µM): 0.546
relative viability ([14]; first compound 2.53 µM): 0.699
relative viability ([14]; first compound 8 µM): 0.429
relative viability ([15]; first compound 0.08 µM): 1.09
relative viability ([15]; first compound 0.253 µM): 1.12
relative viability ([15]; first compound 2.53 µM): 0.981
relative viability ([15]; first compound 8 µM): 0.644
